Data published in paper PMC4349960, “[^18F]FE@SUPPY: a suitable PET tracer for the adenosine A3 receptor? An in vivo study in rodents” (European Journal of Nuclear Medicine and Molecular Imaging, 2015).
Where two headings read alike, the source gives them in different places.

Tests used:
A3R = target: T1, A3R (Rattus norvegicus, UniProt P28647); test: Small-animal PET in rats: baseline and A3R blocking scans; assay type: in vivo; conditions: blocker 2 mg/kg i.v. 30 min before tracer; for reduction in brain AUC of [^18F]FE@SUPPY as compared with DMSO administration: 0-60 min
T1 construct: Adult male Sprague-Dawley rats; from tissue; host or cells: living Sprague-Dawley rats, brain volume of interest in PET
T1 sequence (P28647 1-320): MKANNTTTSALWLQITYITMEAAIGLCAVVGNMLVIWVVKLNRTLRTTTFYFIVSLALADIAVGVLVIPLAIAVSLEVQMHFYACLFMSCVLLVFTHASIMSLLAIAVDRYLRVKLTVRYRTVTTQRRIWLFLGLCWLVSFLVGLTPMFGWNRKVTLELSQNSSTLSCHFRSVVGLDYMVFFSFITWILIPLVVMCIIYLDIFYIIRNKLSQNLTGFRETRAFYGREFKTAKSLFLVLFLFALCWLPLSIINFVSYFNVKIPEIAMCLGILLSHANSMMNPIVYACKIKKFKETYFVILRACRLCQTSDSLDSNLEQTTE
Source text: A microPET Focus220 scanner (Siemens, Medical Solutions) was used for the experiments. It has 168 detector modules providing a 7.6-cm axial and 22-cm transaxial field of view. The resolution of the reconstructed images (filtered back projection) was 1.3 mm (full-width at half-maximum) in the central field of view and remained under 2 mm within the central 5 cm diameter field of view. For PET imaging two groups of animals (rats and xenografted mice) were investigated. Rats were divided into four groups. The first group received vehicle (dimethyl sulphoxide, DMSO) intravenously via a lateral tail vein 30 min prior to radiotracer administration (three animals, 14.3 – 70.1 MBq, 0.2604 ± 0.06 μg). The second group received MRS1523 – a selective A3R antagonist – at a dose of 2 mg/kg body weight (dissolved in DMSO, 4 mg/mL) intravenously via a tail vein 30 min prior to radiotracer administration (three animals, 18.8 – 59.1 MBq, 0.3443 ± 0.05 μg). The third group received unlabelled title compound FE@SUPPY (dissolved in DMSO, 4 mg/mL) at a dose of 2 mg/kg 30 min before tracer administration (three animals, 9.7 – 16.1 MBq, 0.3926 ± 0.04 μg). In the final study group, the effect of P-glycoprotein inhibition was assessed by intravenous administration of 15 mg/kg TQD (freshly dissolved on each experimental day in 2.5 % aqueous dextrose solution and injected intravenously via a tail vein at a volume of 3 mL/kg over 1 min) 60 min prior to tracer administration (three animals, 13.9 – 26.8 MBq, 0.7451 ± 0.11 μg).
Anaesthetized animals were positioned in the imaging chamber of the microPET scanner, which was kept at 38 °C throughout the experiment. A stereotactic holder attached to the bed, consisting of ear plugs and a tooth bar, was used to fix the animal's head to ensure a reproducible position during the PET studies. [^18F]FE@SUPPY (27.91 ± 13.82 MBq) dissolved in 0.48 ± 0.22 mL phosphate-buffered saline (pH 7.4) was administered as a bolus via a tail vein. Dynamic PET imaging was performed over 60 min in all animals. At the end of the PET scan the animals were killed, a terminal blood sample was collected and whole brains were removed for testing of metabolite stability.
For all PET scans (rats and xenografted mice), list mode data were acquired with an energy window of 350 – 750 keV (rats) or 250 – 750 keV (mice) and a 6-ns timing window. Before each PET scan, a transmission scan using a ^57Co point source was recorded over 10 min. The PET data from the 60-min dynamic scans were sorted into three-dimensional sinograms according to the following frame sequence: 6 × 20 s, 5 × 60 s, 4 × 120 s, 3 × 300 s and 3 × 600 s. For the 90-min scans (in the xenografted mice) the following frame sequence was used: 8 × 5 s, 2 × 10 s, 2 × 30 s, 3 × 60 s, 2 × 150 s, 2 × 300 s, 4 × 600 s and 2 × 900 s. PET images were reconstructed by Fourier rebinning followed by filtered back projection with a ramp filter. The resulting voxel size was 0.6 × 0.6 × 0.8 mm for rats or 0.4 × 0.4 × 0.8 mm for mice. The standard data correction protocol (normalization, attenuation and decay correction) was applied to the data. A calibration factor for converting units of microPET images into absolute radioactivity concentration units was first generated by imaging a phantom filled with a known concentration of [^18F]FDG.
Rat brains were manually outlined on multiple planes of the PET summation images using the image analysis software PMOD 3.1 (Pmod Ltd, Zürich, Switzerland) or Amide. Volumes of interest in the brain or solid tissue mass (xenografts) were transferred to the PET images of the individual time frames and time–activity curves (TACs) expressed in units of kilobecquerels per millilitre were calculated. To facilitate comparison of TACs of different animals, radioactivity concentrations were normalized to dose and weight and expressed as standardized uptake value (SUV, %ID/cm^3 or %ID/g). […]

[1] = Ex vivo stability/metabolism in rat plasma and brain after pretreatment; design: species or system rats; conditions: rats, after blocking treatment
Experimental: To determine the influence of the four treatments (vehicle, MRS1523, FE@SUPPY, TQD) on uptake of [^18F]FE@SUPPY, stability was assessed in plasma and brain 60 min after tracer injection. Final blood samples (3 mL) were collected in heparin-buffered tubes, rat brains were washed with ice-cold water and homogenized in 0.9 % aqueous NaCl solution (1 mL) using an IKA T10 basic Ultra-turrax (IKA Laboratory Equipment, Staufen, Germany). […] Sample clean-up was performed by vortexing plasma with the equivalent amount of methanol/acetonitrile (9:1) for 1 min and by subsequent ultracentrifugation (10,000 rpm, 5 min) to remove precipitated proteins. The supernatants obtained were analysed by radio-HPLC (Agilent, Boeblingen, Germany) equipped with a series 1100 autosampler, a series 1200 quaternary pump, a series 1200 diode array detector and a lead-shielded BGO radiodetector. A Chromolith® Performance RP-18e (100 × 4.6 mm, 5 μm) column with a Chromolith® Performance RP-18e (4 x4 mm, 5 μm) precolumn was eluted at a flow rate of 2 mL/min using a mobile phase consisting of 60 % acetonitrile and 40 % water/acetic acid 97.5:2.5 and 32 mM ammonium acetate, pH 3.5. UV detection was performed at a wavelength of 254 nm. The retention time of [^18F]FE@SUPPY was 4.6 – 5.9 min (UV detection and radiodetection).

rat A3R [2] = conditions: cited from earlier work
human A1R = tested on: human A1R; design: method as in earlier work; conditions: cited from earlier work
human A2AR = tested on: human A2AR; design: method as in earlier work; conditions: cited from earlier work
rat A3R [3] = test: Affinity for rat A3R (literature binding data); conditions: ratio of Ki values
human A3R = target: human A3R; design: method as in PMID 10052977; conditions: read-out: Ki, affinity for human A3R; cited from earlier work
[4] = target: T2, CHO cells expressing the human A3R (CHO-A3) (Homo sapiens, UniProt P0DMS8); test: Xenograft mouse model PET (CHO vs CHO-A3 solid tissue masses); assay type: in vivo, mice; conditions: xenografted mice, static image 1 h after injection
T2 construct: Karl-Norbert Klotz (University of Würzburg); host or cells: CHO cells stably transfected (CHO-A3), grown as subcutaneous masses in NMRI-nu/nu mice
T2 sequence (P0DMS8 1-318): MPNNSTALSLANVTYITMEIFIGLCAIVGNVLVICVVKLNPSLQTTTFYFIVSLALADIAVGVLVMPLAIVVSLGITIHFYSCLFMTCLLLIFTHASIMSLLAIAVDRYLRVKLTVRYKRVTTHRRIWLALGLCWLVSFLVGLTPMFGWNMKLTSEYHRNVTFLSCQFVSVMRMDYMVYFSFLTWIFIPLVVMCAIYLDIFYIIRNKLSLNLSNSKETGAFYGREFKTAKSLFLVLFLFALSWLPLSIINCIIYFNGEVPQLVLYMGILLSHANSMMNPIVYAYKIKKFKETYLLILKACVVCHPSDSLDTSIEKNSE
Experimental: Adult male Sprague-Dawley rats (Him:OFA; Animal Research Institute, Himberg, Austria) weighing 307 ± 35 g were kept under controlled environmental conditions (22 ± 1 °C, 40 – 70 % humidity, 12-h light/dark cycle) with free access to standard laboratory animal diet and tap water. Before being used in the experiments, the animals were allowed to adapt to the new conditions for at least a week. Prior to each experiment, the animals were placed in a chamber containing 2.5 % isoflurane in oxygen. When unconscious, the animals were taken from the chamber and kept under anaesthesia with 1.8 % isoflurane administered via a mask during the whole experiment. Pathogen-free, female NMRI-nu/nu mice (Taconic, Denmark) weighing 28.1 ± 0.8 g were housed under sterile conditions. Mice were injected subcutaneously into both upper flanks with 100 μL of a cell suspension in phosphate-buffered saline containing 10^6 CHO cells (right side) or 10^6 CHO-A3 cells (left side). During the imaging periods of 60 or 90 min (rats or xenografted mice, respectively) the isoflurane level was adjusted depending on the depth of anaesthesia. A humidifier was used to moisten the gas mixture before supplying it to the animal.
Around 17 days after cell inoculation, animals in the xenograft group were positioned in the imaging chamber and a dynamic 90-min PET scan was initiated at the start of [^18F]FE@SUPPY injection (2.21 ± 0.75 MBq dissolved in 100 μl physiological saline, pH 7.4; three animals) via a tail vein under isoflurane anaesthesia (2 %). Additionally, in this group, [^18F]FDG PET was performed 1 day prior to the [^18F]FE@SUPPY experiments. […] In brief, mice were deprived of food for 6 – 8 h before [^18F]FDG injection via a tail vein. Mice had access to drinking water at all times. Body warming was achieved by placing the entire cage on a heating pad kept at 38 °C. Warming was started around 30 min before tracer injection and was continued throughout the uptake and imaging period. [^18F]FDG (6.03 ± 1.31 MBq dissolved in 100 μL physiological saline, pH 7.4; three animals) was injected via a tail vein under isoflurane anaesthesia (2 %). Mice were kept under isoflurane anaesthesia throughout the whole uptake and imaging period. A 10-min static image was acquired at 1 h after [^18F]FDG injection. […]
For all PET scans (rats and xenografted mice), list mode data were acquired with an energy window of 350 – 750 keV (rats) or 250 – 750 keV (mice) and a 6-ns timing window. Before each PET scan, a transmission scan using a ^57Co point source was recorded over 10 min. […] A calibration factor for converting units of microPET images into absolute radioactivity concentration units was first generated by imaging a phantom filled with a known concentration of [^18F]FDG. […]

[5] = read-out: Ki, affinity for rat A3R

Row | Compound | reduction in peak brain activity of [^18F]FE@SUPPY as compared with DMSO administration (A3R) [%] | reduction in brain AUC of [^18F]FE@SUPPY as compared with DMSO administration (A3R) [%] | reduction in plasma concentration of [^18F]FE@SUPPY at 60 min after injection [1] [%] | Ki (rat A3R [2]; [5]) [nM] | further results
1 | CCSC(=O)c1c(CC)nc(-c2ccccc2)c(C(=O)OCCF)c1CC [FE@SUPPY] | 16.7 | 5.4 | 27 | 600 | affinity for human A1R (human A1R): micromolar range; affinity for human A2AR (human A2AR): micromolar range
2 | CCCOC(=O)c1c(-c2ccccc2)nc(CC)c(C(=O)SCC)c1CCC [MRS1523, reference compound] | 34.1 | 27.6 | 36 | 113 | fold higher affinity of MRS1523 for rat A3R compared with FE@SUPPY (rat A3R [3]): 5.31 fold
3 | CCSC(=O)c1c(CC)nc(-c2ccccc2)c(C(=O)OCCF)c1CC [[^18F]FE@SUPPY, 5-(2-[^18F]fluoroethyl)-2,4-diethyl-3-(ethylsulfanylcarbonyl)-6-phenylpyridine-5-carboxylate] | – | – | – | – | Ki (human A3R): 4.2 nM; Ki (rat A3R [2]; read-out: Ki, affinity towards rat A3R): 600 nM
4 | [^18F]FDG [reference compound] | – | – | – | – | uptake in CHO tissue mass [4]: 5.4 %ID/g; uptake in CHO-A3 tissue mass [4]: 6.3 %ID/g
